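Briefly, cells in 96-well plates were exposed to five compound concentrations for 48 h, and endpoints were estimated by linear interpolation. TGI is the concentration that stops growth completely.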
Assays:
Experiment in all cases: NCI-60 cell line screen, 48 h
CAKI-1 renal = test system: CAKI-1 renal
PC-3 prostate = test system: PC-3 prostate
ACHN renal = test system: ACHN renal
SK-OV-3 ovarian = test system: SK-OV-3 ovarian
CCRF-CEM leukemia = test system: CCRF-CEM leukemia
SNB-19 CNS = test system: SNB-19 CNS
A549 NSCLC = test system: A549 NSCLC
IGROV1 ovarian = test system: IGROV1 ovarian
MDA-N = test system: MDA-N
EKVX NSCLC = test system: EKVX NSCLC
TK-10 renal = test system: TK-10 renal
NCI-H226 lung = test system: NCI-H226 lung
UACC-257 melanoma = test system: UACC-257 melanoma
NCI-H23 lung = test system: NCI-H23 lung
UO-31 renal = test system: UO-31 renal
SK-MEL-5 melanoma = test system: SK-MEL-5 melanoma
786-0 renal = test system: 786-0 renal
BT-549 breast = test system: BT-549 breast
MALME-3M melanoma = test system: MALME-3M melanoma
OVCAR-4 ovarian = test system: OVCAR-4 ovarian
SN12C renal = test system: SN12C renal
RPMI-8226 leukemia = test system: RPMI-8226 leukemia
U251 CNS = test system: U251 CNS
HT29 colon = test system: HT29 colon
SK-MEL-2 melanoma = test system: SK-MEL-2 melanoma
SNB-75 CNS = test system: SNB-75 CNS
HCT-15 colon = test system: HCT-15 colon
NCI-H460 lung = test system: NCI-H460 lung
SF-295 CNS = test system: SF-295 CNS
MDA-MB-231 breast = test system: MDA-MB-231 breast
MOLT-4 leukemia = test system: MOLT-4 leukemia
RXF 393 renal = test system: RXF 393 renal
UACC-62 melanoma = test system: UACC-62 melanoma
OVCAR-5 ovarian = test system: OVCAR-5 ovarian
KM12 colon = test system: KM12 colon
COLO 205 colon = test system: COLO 205 colon
SK-MEL-28 melanoma = test system: SK-MEL-28 melanoma
NCI/ADR-RES ovarian = test system: NCI/ADR-RES ovarian
HCT-116 colon = test system: HCT-116 colon
HCC-2998 colon = test system: HCC-2998 colon
T-47D breast = test system: T-47D breast
SF-539 CNS = test system: SF-539 CNS
NCI-H522 lung = test system: NCI-H522 lung
HOP-92 NSCLC = test system: HOP-92 NSCLC
MCF7 breast = test system: MCF7 breast
A498 renal = test system: A498 renal
SW-620 colon = test system: SW-620 colon
DU-145 prostate = test system: DU-145 prostate
M14 melanoma = test system: M14 melanoma
K-562 leukemia = test system: K-562 leukemia
OVCAR-3 ovarian = test system: OVCAR-3 ovarian
OVCAR-8 ovarian = test system: OVCAR-8 ovarian
HS 578T breast = test system: HS 578T breast
LOX IMVI melanoma = test system: LOX IMVI melanoma
HOP-62 NSCLC = test system: HOP-62 NSCLC
MDA-MB-435 = test system: MDA-MB-435
SF-268 CNS = test system: SF-268 CNS
HL-60(TB) leukemia = test system: HL-60(TB) leukemia
SR leukemia = test system: SR leukemia

Compound: Cc1c(Cc2ccccc2)n(COCCCO)c(=O)[nH]c1=O
- TGI (CAKI-1 renal): > 100 µM
- TGI (PC-3 prostate): > 100 µM
- TGI (ACHN renal): > 100 µM
- TGI (SK-OV-3 ovarian): > 100 µM
- TGI (CCRF-CEM leukemia): > 100 µM
- TGI (SNB-19 CNS): > 100 µM
- TGI (A549 NSCLC): > 100 µM
- TGI (IGROV1 ovarian): > 100 µM
- TGI (MDA-N): > 100 µM
- TGI (EKVX NSCLC): > 100 µM
- TGI (TK-10 renal): > 100 µM
- TGI (NCI-H226 lung): > 100 µM
- TGI (UACC-257 melanoma): > 100 µM
- TGI (NCI-H23 lung): > 100 µM
- TGI (UO-31 renal): > 100 µM
- TGI (SK-MEL-5 melanoma): > 100 µM
- TGI (786-0 renal): > 100 µM
- TGI (BT-549 breast): > 100 µM
- TGI (MALME-3M melanoma): > 100 µM
- TGI (OVCAR-4 ovarian): > 100 µM
- TGI (SN12C renal): > 100 µM
- TGI (RPMI-8226 leukemia): > 100 µM
- TGI (U251 CNS): > 100 µM
- TGI (HT29 colon): > 100 µM
- TGI (SK-MEL-2 melanoma): > 100 µM
- TGI (SNB-75 CNS): > 100 µM
- TGI (HCT-15 colon): > 100 µM
- TGI (NCI-H460 lung): > 100 µM
- TGI (SF-295 CNS): > 100 µM
- TGI (MDA-MB-231 breast): > 100 µM
- TGI (MOLT-4 leukemia): > 100 µM
- TGI (RXF 393 renal): > 100 µM
- TGI (UACC-62 melanoma): > 100 µM
- TGI (OVCAR-5 ovarian): > 100 µM
- TGI (KM12 colon): > 100 µM
- TGI (COLO 205 colon): > 100 µM
- TGI (SK-MEL-28 melanoma): > 100 µM
- TGI (NCI/ADR-RES ovarian): > 100 µM
- TGI (HCT-116 colon): > 100 µM
- TGI (HCC-2998 colon): > 100 µM
- TGI (T-47D breast): > 100 µM
- TGI (SF-539 CNS): > 100 µM
- TGI (NCI-H522 lung): > 100 µM
- TGI (HOP-92 NSCLC): > 100 µM
- TGI (MCF7 breast): > 100 µM
- TGI (A498 renal): > 100 µM
- TGI (SW-620 colon): > 100 µM
- TGI (DU-145 prostate): > 100 µM
- TGI (M14 melanoma): > 100 µM
- TGI (K-562 leukemia): > 100 µM
- TGI (OVCAR-3 ovarian): > 100 µM
- TGI (OVCAR-8 ovarian): > 100 µM
- TGI (HS 578T breast): > 100 µM
- TGI (LOX IMVI melanoma): > 100 µM
- TGI (HOP-62 NSCLC): > 100 µM
- TGI (MDA-MB-435): > 100 µM
- TGI (SF-268 CNS): > 100 µM

Compound: Cc1ccc(S(=O)(=O)OC2C3OC(C)(C)OC3OC2C(c2cc(O)c3c(c2O)C(=O)c2ccccc2C3=O)c2cc(O)c3c(c2O)C(=O)c2ccccc2C3=O)cc1 (stereo not drawn)
- TGI (CAKI-1 renal): > 10 µM
- TGI (PC-3 prostate): > 10 µM
- TGI (ACHN renal): > 10 µM
- TGI (SK-OV-3 ovarian): > 10 µM
- TGI (CCRF-CEM leukemia): > 10 µM
- TGI (SNB-19 CNS): > 10 µM
- TGI (A549 NSCLC): > 10 µM
- TGI (IGROV1 ovarian): > 10 µM
- TGI (MDA-N): > 10 µM
- TGI (HL-60(TB) leukemia): > 10 µM
- TGI (EKVX NSCLC): > 10 µM
- TGI (TK-10 renal): > 10 µM
- TGI (NCI-H226 lung): > 10 µM
- TGI (UACC-257 melanoma): > 10 µM
- TGI (NCI-H23 lung): > 10 µM
- TGI (UO-31 renal): > 10 µM
- TGI (SK-MEL-5 melanoma): > 10 µM
- TGI (786-0 renal): > 10 µM
- TGI (BT-549 breast): > 10 µM
- TGI (MALME-3M melanoma): > 10 µM
- TGI (OVCAR-4 ovarian): > 10 µM
- TGI (SN12C renal): > 10 µM
- TGI (RPMI-8226 leukemia): > 10 µM
- TGI (U251 CNS): > 10 µM
- TGI (HT29 colon): > 10 µM
- TGI (SK-MEL-2 melanoma): > 10 µM
- TGI (SNB-75 CNS): > 10 µM
- TGI (HCT-15 colon): > 10 µM
- TGI (NCI-H460 lung): > 10 µM
- TGI (SF-295 CNS): > 10 µM
- TGI (MDA-MB-231 breast): > 10 µM
- TGI (MOLT-4 leukemia): > 10 µM
- TGI (UACC-62 melanoma): > 10 µM
- TGI (OVCAR-5 ovarian): > 10 µM
- TGI (KM12 colon): > 10 µM
- TGI (COLO 205 colon): > 10 µM
- TGI (SK-MEL-28 melanoma): > 10 µM
- TGI (NCI/ADR-RES ovarian): > 10 µM
- TGI (HCT-116 colon): > 10 µM
- TGI (HCC-2998 colon): > 10 µM
- TGI (T-47D breast): > 10 µM
- TGI (SF-539 CNS): > 10 µM
- TGI (NCI-H522 lung): > 10 µM
- TGI (HOP-92 NSCLC): > 10 µM
- TGI (MCF7 breast): > 10 µM
- TGI (A498 renal): > 10 µM
- TGI (SW-620 colon): > 10 µM
- TGI (DU-145 prostate): > 10 µM
- TGI (M14 melanoma): > 10 µM
- TGI (K-562 leukemia): > 10 µM
- TGI (OVCAR-3 ovarian): > 10 µM
- TGI (OVCAR-8 ovarian): > 10 µM
- TGI (HS 578T breast): > 10 µM
- TGI (LOX IMVI melanoma): > 10 µM
- TGI (HOP-62 NSCLC): > 10 µM
- TGI (MDA-MB-435): > 10 µM
- TGI (SR leukemia): > 10 µM
- TGI (SF-268 CNS): > 10 µM

Compound: COC12C=CC(CC1)C(C)(C)C2=O (stereo not drawn)
- TGI (CAKI-1 renal): > 100 µM
- TGI (PC-3 prostate): > 100 µM
- TGI (ACHN renal): > 100 µM
- TGI (SK-OV-3 ovarian): > 100 µM
- TGI (CCRF-CEM leukemia): > 100 µM
- TGI (SNB-19 CNS): > 100 µM
- TGI (A549 NSCLC): > 100 µM
- TGI (IGROV1 ovarian): > 100 µM
- TGI (MDA-N): > 100 µM
- TGI (HL-60(TB) leukemia): > 100 µM
- TGI (EKVX NSCLC): > 100 µM
- TGI (TK-10 renal): > 100 µM
- TGI (NCI-H226 lung): > 100 µM
- TGI (UACC-257 melanoma): > 100 µM
- TGI (NCI-H23 lung): > 100 µM
- TGI (UO-31 renal): > 100 µM
- TGI (SK-MEL-5 melanoma): > 100 µM
- TGI (786-0 renal): > 100 µM
- TGI (BT-549 breast): > 100 µM
- TGI (MALME-3M melanoma): > 100 µM
- TGI (OVCAR-4 ovarian): > 100 µM
- TGI (SN12C renal): > 100 µM
- TGI (RPMI-8226 leukemia): > 100 µM
- TGI (U251 CNS): > 100 µM
- TGI (HT29 colon): > 100 µM
- TGI (SK-MEL-2 melanoma): > 100 µM
- TGI (SNB-75 CNS): > 100 µM
- TGI (HCT-15 colon): > 100 µM
- TGI (NCI-H460 lung): > 100 µM
- TGI (SF-295 CNS): > 100 µM
- TGI (MDA-MB-231 breast): > 100 µM
- TGI (MOLT-4 leukemia): > 100 µM
- TGI (RXF 393 renal): > 100 µM
- TGI (UACC-62 melanoma): > 100 µM
- TGI (OVCAR-5 ovarian): > 100 µM
- TGI (KM12 colon): > 100 µM
- TGI (COLO 205 colon): > 100 µM
- TGI (SK-MEL-28 melanoma): > 100 µM
- TGI (NCI/ADR-RES ovarian): > 100 µM
- TGI (HCT-116 colon): > 100 µM
- TGI (HCC-2998 colon): > 100 µM
- TGI (T-47D breast): > 100 µM
- TGI (SF-539 CNS): > 100 µM
- TGI (NCI-H522 lung): > 100 µM
- TGI (HOP-92 NSCLC): > 100 µM
- TGI (MCF7 breast): > 100 µM
- TGI (A498 renal): > 100 µM
- TGI (SW-620 colon): > 100 µM
- TGI (DU-145 prostate): > 100 µM
- TGI (M14 melanoma): > 100 µM
- TGI (K-562 leukemia): > 100 µM
- TGI (OVCAR-3 ovarian): > 100 µM
- TGI (OVCAR-8 ovarian): > 100 µM
- TGI (HS 578T breast): > 100 µM
- TGI (HOP-62 NSCLC): > 100 µM
- TGI (MDA-MB-435): > 100 µM
- TGI (SR leukemia): > 100 µM
- TGI (SF-268 CNS): > 100 µM
